Literature values, collected in patent publication EP4545067A1, “HIGHY DOSED DERMALLY […] PREPARATION HAVING AN INCREASED DRUGLOAD IN THE TARGET CO[…] IMPROVED TREATMENT OF ECTOPARASITE INFESTATION” (Infectopharm Arzneimittel und Consilium GmbH, priority 2023, dated 2025).

Conditions: bei 20 °C

Compound: CC1(C)C(C=C(Cl)Cl)C1C(=O)OCc1cccc(Oc2ccccc2)c1 (stereo not shown) [Permethrin, 3-(2,2-Dichlorethenyl)-2,2-dimethylcyclopropancarboxylsäure-(3-phenoxyphenyl)methylester]
- Löslichkeit in Wasser: 0,2 mg·l^-1
